# Patent publication US5686449A, “1,5-benzodiazepines useful as gastrinor CCK-antagonists” (priority 1994, dated 1997)
# Like-named read-outs stand apart in the source and are kept apart here.
# Legend:
# [1] = target: T1, CCK-B receptor (Cavia porcellus, UniProt H0VZC5); assay: CCK receptor binding, CCK-B (guinea pig cortex assay)
# T1 construct: CCK-B receptor (guinea pig cortex assay); from tissue; host or cells: guinea pig cortex
# T1 sequence (H0VZC5 1-426): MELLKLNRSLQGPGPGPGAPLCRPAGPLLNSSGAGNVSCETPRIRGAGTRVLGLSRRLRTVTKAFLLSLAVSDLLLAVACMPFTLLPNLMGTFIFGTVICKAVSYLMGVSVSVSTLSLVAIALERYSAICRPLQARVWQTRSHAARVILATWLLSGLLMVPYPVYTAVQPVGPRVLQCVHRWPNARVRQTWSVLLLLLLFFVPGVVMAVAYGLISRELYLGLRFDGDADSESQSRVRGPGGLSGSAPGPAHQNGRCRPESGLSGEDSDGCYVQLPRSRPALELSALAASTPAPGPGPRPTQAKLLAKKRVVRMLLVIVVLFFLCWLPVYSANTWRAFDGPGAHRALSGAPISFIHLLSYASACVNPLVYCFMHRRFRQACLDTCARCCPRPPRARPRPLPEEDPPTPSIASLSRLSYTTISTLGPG
# Protocol: (§1) Exp & Ther. 261, 1056-1063, 1992.
# (§2) The binding affinity of the compounds of the invention for the CCK-A receptor (Pancreas Assay) and CCK-B receptor (guinea pig cortex assay) was determined using the procedure of G Dal Forno et al J. Pharmacol. Exp & Ther. 261-1056-1063.
# [2] = target: CCK-A receptor; assay: CCK receptor binding, CCK-A (Pancreas Assay)
# Protocol: as §1, §2
# [3] = CCK-B receptor, guinea pig cortex assay, read-out: pKi CCK-B (converted)
"Ki [1, 3]",pKi CCK-A [2],Compound,Ki [1]
1 nM,,"CN1C(=O)C(NC(=O)Nc2ccccc2)C(=O)N(CC23CC4CC(CC(C4)C2)C3)c2ccccc21 (single isomer, unassigned; (-)) [Example 8, (-)-N-[1-(Adamantylmethyl)-2,4-dioxo-5-methyl-2,3,4,5-tetrahydro-1H-1,5-benzodiazepin-3-yl]-N'-phenylurea]",
0.251 nM,,"O=C(Nc1ccccc1)NC1C(=O)N(CCO)c2ccccc2N(CC23CC4CC(CC(C4)C2)C3)C1=O (single isomer, unassigned; (-)) [Example 11, (-)-N-[1-(Adamantylmethyl)-2,4-dioxo-5-(2-hydroxyethyl)-2,3,4,5-tetrahydro-1H-1,5-benzodiazepin-3-yl]-N'-phenylurea]",
1.38 nM,6.54,"CC(C)CCN1C(=O)C(NC(=O)Nc2ccccc2)C(=O)N(CC23CC4CC(CC(C4)C2)C3)c2ccccc21 (centres unmarked) [Example 1, N-[1-(1-Adamantylmethyl)-2,4-dioxo-5-(3-methylbut-1-yl)-2,3,4,5-tetrahydro-1H-1,5-benzodiazepin-3-yl]-N'-phenylurea]",
1.41 nM,,"O=C(Nc1ccccc1)NC1C(=O)N(CCO)c2ccccc2N(CC23CC4CC(CC(C4)C2)C3)C1=O (centres unmarked) [Example 9, N-[1-(Adamantylmethyl)-2,4-dioxo-5-(2-hydroxyethyl)-2,3,4,5-tetrahydro-1H-1,5-benzodiazepin-3-yl]-N'-phenylurea]",
0.398 nM,6.8,Cc1cccc(NC(=O)NC2C(=O)N(CCO)c3ccccc3N(CC34CC5CC(CC(C5)C3)C4)C2=O)c1 (centres unmarked) [Example 10],
2.04 nM,6.16,CCCCN1C(=O)C(NC(=O)Nc2ccc(OC)cc2)C(=O)N(CCC(C)C)c2ccccc21 (centres unmarked) [Example 12],
0.389 nM,6.09,"O=C(Nc1ccccc1)NC1C(=O)N(CCCO)c2ccccc2N(CC23CC4CC(CC(C4)C2)C3)C1=O (centres unmarked) [Example 14, N-[1-(Adamantane-1-methyl)-2,4-dioxo-5-(3-hydroxypropyl)-2,3,4,5-tetrahydro-1H-1,5-benzodiazepin-3-yl]-N'-phenylurea]",

Compound,"Ki [1, 3]",pKi CCK-A [2],Ki [1]
"CC(C)CCN1C(=O)C(NC(=O)Nc2cccc(N(C)C)c2)C(=O)N(CC23CC4CC(CC(C4)C2)C3)c2ccccc21 (centres unmarked) [Example 2, N-[1-(1-Adamantylmethyl)-2,4-dioxo-5-(3-methylbut-1-yl)-2,3,4,5-tetrahydro-1H-1,5-benzodiazepin-3-yl]-N'-[3-(N,N-dimethylamino)phenyl]urea]",,6.02,5.62 nM
O=C(Nc1ccccc1)NC1C(=O)N(CC23CC4CC(CC(C4)C2)C3)c2ccccc2N(C2CCCCC2)C1=O (centres unmarked) [Example 3],,6.25,2.4 nM
"CC(C)CCN1C(=O)C(NC(=O)Oc2cccc(N(C)C)c2)C(=O)N(CC23CC4CC(CC(C4)C2)C3)c2ccccc21 (centres unmarked) [Example 4, 1-(1-Adamantylmethyl)-3-[3-(N,N-dimethylamino)phenyloxycarbonyl]amino-2,4-dioxo-5-(3-methylbut-1-yl)-2,3,4,5-tetrahydro-1H-1,5-benzodiazepine]",,5.80,7.59 nM
